Numbers after ± are expanded uncertainties.
How the values were obtained:
[1] = Drop volume
[2] = xn = mol fraction of the nth substance listed; settings: Drop volume

CCCCCC [hexane]
[1]
Settings	surface tension liquid-gas [mN/m]
283.15 K	19.63 ± 0.25
288.15 K	19.04 ± 0.24
293.15 K	18.52 ± 0.24
298.15 K	18.06 ± 0.23
303.15 K	17.53 ± 0.23
308.15 K	16.74 ± 0.22
313.15 K	16.47 ± 0.22

CCCCCCl [1-chloropentane]
[1]
Settings	surface tension liquid-gas [mN/m]
283.15 K	26.02 ± 0.32
288.15 K	25.58 ± 0.32
293.15 K	25.02 ± 0.31
298.15 K	24.46 ± 0.3
303.15 K	24.02 ± 0.3
308.15 K	23.51 ± 0.29
313.15 K	23.02 ± 0.29

CCCCCl [1-chlorobutane]
[1]
Settings	surface tension liquid-gas [mN/m]
283.15 K	24.73 ± 0.31
288.15 K	24.24 ± 0.3
293.15 K	23.64 ± 0.29
298.15 K	23.29 ± 0.29
303.15 K	22.62 ± 0.28
308.15 K	22.03 ± 0.28
313.15 K	21.53 ± 0.27

CCCCCCl [1-chloropentane] + CCCCCC
surface tension liquid-gas [mN/m], [2]
Settings	283.15 K	288.15 K	293.15 K	298.15 K	303.15 K	308.15 K	313.15 K
x2 = 0.0482	25.44 ± 0.31	25.02 ± 0.31	24.53 ± 0.3	24.02 ± 0.3	23.59 ± 0.29	23.11 ± 0.29	22.64 ± 0.28
x2 = 0.1185	24.7 ± 0.31	24.3 ± 0.3	23.83 ± 0.3	23.35 ± 0.29	22.95 ± 0.29	22.45 ± 0.28	22.02 ± 0.28
x2 = 0.1991	24 ± 0.3	23.59 ± 0.29	23.09 ± 0.29	22.64 ± 0.28	22.24 ± 0.28	21.71 ± 0.27	21.3 ± 0.27
x2 = 0.308	23.2 ± 0.29	22.76 ± 0.28	22.25 ± 0.28	21.78 ± 0.27	21.37 ± 0.27	20.8 ± 0.26	20.41 ± 0.26
x2 = 0.3925	22.62 ± 0.28	22.17 ± 0.28	21.67 ± 0.27	21.2 ± 0.27	20.75 ± 0.26	20.16 ± 0.26	19.8 ± 0.25
x2 = 0.5087	21.91 ± 0.28	21.44 ± 0.27	20.94 ± 0.26	20.47 ± 0.26	20.03 ± 0.25	19.4 ± 0.25	19.05 ± 0.24
x2 = 0.5953	21.41 ± 0.27	20.94 ± 0.26	20.47 ± 0.26	20.02 ± 0.25	19.56 ± 0.25	18.91 ± 0.24	18.56 ± 0.24
x2 = 0.7076	20.85 ± 0.26	20.37 ± 0.26	19.9 ± 0.25	19.45 ± 0.25	18.98 ± 0.24	18.3 ± 0.24	18 ± 0.23
x2 = 0.7889	20.47 ± 0.26	19.98 ± 0.25	19.5 ± 0.25	19.04 ± 0.24	18.56 ± 0.24	17.88 ± 0.23	17.58 ± 0.23
x2 = 0.9069	19.97 ± 0.25	19.44 ± 0.25	18.94 ± 0.24	18.5 ± 0.24	17.99 ± 0.23	17.25 ± 0.22	16.99 ± 0.22
x2 = 0.9474	19.81 ± 0.25	19.24 ± 0.25	18.74 ± 0.24	18.29 ± 0.24	17.79 ± 0.23	17.05 ± 0.22	16.77 ± 0.22

CCCCCl [1-chlorobutane] + CCCCCC
surface tension liquid-gas [mN/m], [2]
Settings	283.15 K	288.15 K	293.15 K	298.15 K	303.15 K	308.15 K	313.15 K
x2 = 0.0493	24.17 ± 0.3	23.68 ± 0.29	23.11 ± 0.29	22.74 ± 0.28	22.08 ± 0.28	21.5 ± 0.27	21.04 ± 0.27
x2 = 0.1016	23.7 ± 0.29	23.21 ± 0.29	22.63 ± 0.28	22.27 ± 0.28	21.62 ± 0.27	21.03 ± 0.27	20.59 ± 0.26
x2 = 0.2048	22.96 ± 0.29	22.46 ± 0.28	21.88 ± 0.27	21.52 ± 0.27	20.89 ± 0.26	20.28 ± 0.26	19.84 ± 0.25
x2 = 0.3038	22.32 ± 0.28	21.83 ± 0.27	21.28 ± 0.27	20.93 ± 0.26	20.32 ± 0.26	19.69 ± 0.25	19.28 ± 0.25
x2 = 0.3967	21.82 ± 0.27	21.32 ± 0.27	20.79 ± 0.26	20.43 ± 0.26	19.83 ± 0.25	19.18 ± 0.24	18.79 ± 0.24
x2 = 0.5015	21.29 ± 0.27	20.78 ± 0.26	20.25 ± 0.26	19.89 ± 0.25	19.31 ± 0.25	18.64 ± 0.24	18.27 ± 0.23
x2 = 0.6086	20.85 ± 0.26	20.31 ± 0.26	19.77 ± 0.25	19.39 ± 0.25	18.82 ± 0.24	18.14 ± 0.23	17.81 ± 0.23
x2 = 0.7097	20.48 ± 0.26	19.93 ± 0.25	19.4 ± 0.25	19 ± 0.24	18.46 ± 0.24	17.77 ± 0.23	17.47 ± 0.23
x2 = 0.804	20.19 ± 0.26	19.63 ± 0.25	19.1 ± 0.24	18.71 ± 0.24	18.18 ± 0.23	17.46 ± 0.23	17.18 ± 0.22
x2 = 0.9021	19.91 ± 0.25	19.35 ± 0.25	18.84 ± 0.24	18.43 ± 0.24	17.91 ± 0.23	17.16 ± 0.22	16.89 ± 0.22
x2 = 0.9391	19.81 ± 0.25	19.24 ± 0.25	18.73 ± 0.24	18.31 ± 0.24	17.79 ± 0.23	17.02 ± 0.22	16.75 ± 0.22

Source: the NIST ThermoML archive (doi:10.1016/j.jct.2008.10.016)
